# Data from patent publication US12679825B2, “Crystalline and amorphous forms of a δ-opioid modulator” (Trevena, Inc., priority 2020, dated 2026).
# “Also recorded” adds a separate entry of the source. Like-named read-outs stand apart in the source and are kept apart here.
# Tests used:
# Assay type in all cases: physicochemical
# [1] = Aqueous solubility study (slurry in deionized water, HPLC); design: key to XRPD of residual solid, Wet / XRPD of residual solid, Dry: CRY: Crystalline
# Description: The aqueous solubility of the crystalline Form I was assessed using the following procedure: • Approximately 10 mg of the dried material was slurried in deionized water (100 μL) at 20° C. with stirring. • Further aliquots of water (50 μL) were added until a mobile slurry was obtained. A total of 600 μL was used. • The slurry was stirred at 20° C. for 24 h then separated by centrifugation (0.22 μm nylon filter). • The residual solid was analyzed by XRPD and then dried under vacuum at ambient temperature (ca. 20° C.) for 72 h, prior to re-analysis by XRPD. The results are shown in FIG. 45. • The pH of the mother liquor was measured. • The mother liquors were analyzed by HPLC for purity and concentration.
# [2] = Potentiometric (pH-metric) pKa; settings: pH 2.0-12.0, methanol-water co-solvent, Yasuda-Shedlovsky extrapolation
# Description: (§1) Crystalline forms of the compound of Formula I, including the crystalline Form I, were analyzed using pKa and LogP. An automated titrator system with an incorporated UV-Vis spectrometer (SiriusT3™, Pion Inc.) was used to acquire the spectrometric and potentiometric data. The optical system consisted of a photodiode array detector with a deuterium lamp and a fiber optic dip probe.
# The titrator module consisted of a temperature controller (by Peltier device with in-situ thermocouple), pH electrode, an overhead stirrer, and motorized dispensers for the automatic delivery of assay titrants and reagents via capillaries. The instrumentation was operated using SiriusT3Control software (V2.0). Data processing and generation of the reported pKa and logP values was carried out using SiriusT3Refine software (V2.0). The titrants used were 0.5 M hydrochloric acid and 0.5 M potassium hydroxide, standardized using potassium hydrogen phthalate. ACS or HPLC grade methanol cosolvent was used for pKa determination. […]
# An additional potentiometric assay was carried out to confirm the pKa. […] The aqueous pKa was extrapolated from the apparent pKa measured in the presence of co-solvents, using the Yasuda-Shedlovsky extrapolation equation. […]
# [3] = Dynamic Vapour Sorption (DVS)
# Description: The following results and observations were obtained from this experiment (see Table 4 for further details): • After anti-solvent addition to the solutions at 20° C., the experiment carried out using tBME as the initial solvent system had solid adhered to the vial walls. The experiments carried out using MEK and THF as the initial solvent systems were cloudy, with some oil/gum formation noted. • After temperature cycling overnight, all experiments formed slurries. […] (peak at 98° C.) during the first heat. A glass transition with a mid-point half-height of ca. 32° C. was observed during the first cool. […] The residual tBME could not be quantified, due to overlapping signals with the API. Residual heptane was observed, equal to 0.91% w/w, or 0.05 equivalents. • ^1H NMR spectroscopy of the crystalline Form I isolated from MEK:heptane 20:80 v/v % was consistent with the structure of the compound of Formula I free base. The residual MEK could not be quantified, due to overlapping signals with the API. Residual heptane was observed, equal to 0.51% w/w, or 0.02 equivalents. • ^1H NMR spectroscopy of the crystalline Form I isolated from THF:heptane 22:78 v/v % was consistent with the structure of the compound of Formula I free base. The residual THF could not be quantified, due to overlapping signals with the API.
# Crystalline forms of the compound of Formula I, including the crystalline Form I, were analyzed using Dynamic Vapour Sorption (DVS). Approximately 10-15 mg of sample was placed into a mesh vapour sorption balance pan and loaded into a DVS Intrinsic dynamic vapour sorption balance by Surface Measurement Systems. The sample was subjected to a ramping profile from 40-90% relative humidity (RH) at 10% increments, maintaining the sample at each step until a stable weight had been achieved (dm/dt 0.004%, minimum step length 30 minutes, maximum step length 120 minutes) at 25° C. After completion of the sorption cycle, the sample was dried using the same procedure to 0% RH and then a second sorption cycle back to 40% RH was carried out. Two cycles were performed. The weight change during the sorption/desorption cycles were plotted, allowing the hygroscopic nature of the sample to be determined. XRPD analysis was then carried out on the residual solid.
# [4] = Potentiometric (pH-metric) LogP and logD profile; settings: for logP: 25.0±0.2° C.
# Description: as §1
# The titrator module consisted of a temperature controller (by Peltier device with in-situ thermocouple), pH electrode, an overhead stirrer, and motorized dispensers for the automatic delivery of assay titrants and reagents via capillaries. The instrumentation was operated using SiriusT3Control software (V2.0). Data processing and generation of the reported pKa and logP values was carried out using SiriusT3Refine software (V2.0). The titrants used were 0.5 M hydrochloric acid and 0.5 M potassium hydroxide, standardized using potassium hydrogen phthalate. ACS or HPLC grade methanol cosolvent was used for pKa determination. Spectrophotometric experiments were carried out in the presence of a mid-range buffer solution (15 mM di-potassium hydrogen orthophosphate) or Neutral Linear Buffer™ to prevent uncontrolled pH-drift at mid-range pH. For logP assays, ACS or HPLC grade 1-octanol was used as the partition solvent.
# All experiments were carried out at a controlled temperature of 25.0±0.2° C. The pH range of titration assays is set between pH 2.0 to pH 12.0 unless otherwise stated. Prior to use, 0.5 M KOH base titrant is standardized by the titration of approximately 15 mg of potassium hydrogen phthalate, in triplicate. 0.5 M HCl titrant is subsequently standardized against the base titrant. The assay media for pKa determination is kept at a constant ionic strength of 0.15 M KCl and under argon atmosphere.
# 0.79 mg of sample was weighed into a 5 mL glass assay vial and titrated in a pH-metric triple titration in the presence of octanol from pH 2.0-12.0 at concentrations of 1.5-0.5 mM. The partition ratios of octanol/water were 0.012:1, 0.038:1 and 0.517:1. LogP was determined by comparing the pKa in water with the apparent pKa in the presence of octanol. The pH-metric logP experiment was conducted at 25.0±0.2° C. A lipophilicity profile (logD vs. pH) of the compound was calculated from the experimentally determined pKa and logP. The logD values are detailed in Table 12.
compound,measurement,setting,value
"COCCOc1cccc([C@@H]2CCN(CCn3cccc3)[C@H](C)[C@H]2COc2ccc3c(c2)C(=O)NC3)c1 [crystalline Form I, (−)-6-{[(trans, trans)-4-[3-(2-methoxyethoxy)phenyl]-2-methyl-1-[2-(1H-pyrrol-1-yl)ethyl]piperidin-3-yl]methoxy}-2,3-dihydro-1H-isoindol-1-one]","XRPD of residual solid, Dry",[1]; after slurrying in water and drying under vacuum 72 h,CRY
same,"XRPD of residual solid, Wet",[1]; after slurrying in water at 20° C. for 24 h,CRY
same,solubility at 24 h,"[1]; thermodynamic from solid, deionized water, 20° C., slurry stirred 24 h, HPLC, mother liquor pH 6.84, read-out: Aqueous Solubility (solution concentration)",97 µg/mL
same,Form after slurrying in water (XRPD),"[1]; water, 20° C., and after drying",retained
same,Potentiometric (pH-metric) pKa,[2],confirmed the spectrometric pKa
same,DVS mass uptake,"[3]; 25° C./80% RH, material isolated from tBME:heptane 50:50 v/v %",ca. 0.5 % w/w
same,"Water Uptake (DVS, 25° C.) At 25° C./80%, RH","[3]; 25° C./80% RH, tBME:Heptane 50:50",0.5%
same,Post-DVS XRPD,[3]; form after DVS analysis,retained; also recorded: Form I
same,Hygroscopicity (DVS),[3]; material isolated from tBME:heptane 50:50 v/v %,slightly hygroscopic
same,logD,"[4]; 1-octanol/water, pH 5.000",1.2
same,logP,"[4]; octanol/water, read-out: LogP (Potentiometric), cationic species",0.6 ± 0.03
same,logP,"[4]; octanol/water, read-out: LogP (Potentiometric), neutral species",3.81 ± 0.02
same,logD,"[4]; octanol/water, pH 1.2, pH 1.200, Stomach pH",0.6
same,logD,"[4]; octanol/water, pH 6.5, pH 6.500",2.55
same,logD,"[4]; octanol/water, pH 7.4, pH 7.400, Blood pH",3.31
same,logD,"[4]; octanol/water, pH 1.000",0.6
same,logD,"[4]; octanol/water, pH 3.000",0.61
same,logD,"[4]; octanol/water, pH 4.000",0.71
same,logD,"[4]; octanol/water, pH 6.000",2.08
same,logD,"[4]; octanol/water, pH 7.000",3
same,logD,"[4]; octanol/water, pH 8.000",3.62
same,logD,"[4]; octanol/water, pH 9.000",3.79
same,logD,"[4]; octanol/water, pH 10.000",3.81
same,logD,"[4]; octanol/water, pH 11.000",3.81
same,logD,"[4]; octanol/water, pH 12.000",3.81
